Holding throughout (experiment): NCI anticancer screen, dose series, 48 h
Assay [1] relates to SF-539.
Assay [2] relates to CCRF-CEM.
The subject of assay [3] is A549.
The test system of assay [4] is SNB-75.
Assay [5] has as its system A498.
Assay [6] concerns K562.
Assay [7] relates to MCF7.
For assay [8], the system named is DU-145.
The subject of assay [9] is HCT-15.
The test system of assay [10] is MOLT-4.
In assay [11] the test system is UACC-62.
Assay [12] concerns HOP-62.
Assay [13] has as its system MDA-MB-231.
Assay [14] deals with KM12.
Assay [15] has as its system IGROV-1.
For assay [16], the system named is HT-29.
Assay [17] relates to CAKI-1.
The test system of assay [18] is U-251.
Assay [19] relates to NCI-H23.
Assay [20] relates to RPMI-8226.

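Cultured in 96-well plates, cells were exposed to test compound for 48 hours across five concentrations. GI50 marks 50% less growth.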 Calls of active or inactive are those of the source. Cut-off read from the data, not from the text of the source: active = GI50 up to about 1.1 µM and inactive = higher. Bounds are passed on as bounds.

This note sets out measurements from ChEMBL document CHEMBL1201862, “PubChem BioAssay data set” (2004).

Take `O=C1C=C(N2CCCC2)C(=O)c2c(O)ccc(O)c21`: the GI50 in [1] was > 10 µM (inactive); in assay [2], 1.71 µM (inactive); in assay [3], > 10 µM (inactive); in assay [4] it was > 10 µM (inactive); in [5], > 10 µM (inactive); in assay [6], 2.92 µM (inactive). Moreover, the GI50 in assay [7] is 9.57 µM (inactive); in assay [8] it was > 10 µM (inactive); in [9], above 10 µM; in assay [10], 2.37 µM (inactive); in assay [11], 7.28 µM (inactive); in assay [12], > 10 µM (inactive). For the same molecule, the GI50 in assay [13], in assay [14], in assay [15] and in assay [16] was > 10 µM (inactive) each time.
As for `O=C(NNC(=O)c1ccccc1SSc1ccccc1C(=O)NNC(=O)c1ccccc1S)c1ccccc1S`, the GI50 is 13.8 µM (inactive) in assay [1]; 1.29 µM (inactive) in [2]; 13.4 µM (inactive) in assay [3]; 11.7 µM (inactive) in [4]; 11.3 µM (inactive) in [6]; 15.2 µM (inactive) in [7]. The GI50 was 6.55 µM (inactive) in assay [8]; 9.16 µM in [9]; 6 µM (inactive) in [10]; 12.9 µM (inactive) in assay [17]; 17.5 µM (inactive) in assay [11]; 25.9 µM (inactive) in assay [12]. Moreover, the GI50 in assay [18] was 19.5 µM (inactive); in assay [13], 19.6 µM (inactive); in assay [19], 12.3 µM (inactive); in assay [14], 30.5 µM (inactive); in [15], 11.6 µM (inactive); in [20], 43.1 µM (inactive). The GI50 in [16] is 30.3 µM (inactive).
For the molecule `CCC(=O)Nc1ccc(/N=N/N(C)C)cc1`, the GI50 in assay [1] is > 100 µM (inactive); in assay [3], > 100 µM (inactive); in assay [4], > 100 µM (inactive); in assay [5], > 100 µM (inactive); in assay [6] it was 50.2 µM (inactive); in assay [7], > 100 µM (inactive). For the same molecule, the GI50 in assay [8] is > 100 µM (inactive); in [9] it was above 100 µM; in [10], 6.73 µM (inactive); in [11], > 100 µM (inactive); in [12], > 100 µM (inactive); in assay [18], > 100 µM (inactive). The GI50 in [13] is > 100 µM (inactive); in assay [19] it was 7.26 µM (inactive); in assay [15], 2.87 µM (inactive); in assay [16], > 100 µM (inactive).
Take `CCCC(=O)NC(C(=O)OCC)(N1CCOCC1)C(F)(F)F` (stereo not given): the GI50 in [1], in [2], in [3], in [4], in assay [6] and in assay [7] was > 100 µM (inactive) throughout. Besides, the GI50 was > 100 µM (inactive) in [8]; above 100 µM in [9]; > 100 µM (inactive) in assay [10]; > 100 µM (inactive) in [17]; > 100 µM (inactive) in assay [11]; > 100 µM (inactive) in assay [12]. The GI50 in [18], in [13], in [19], in assay [14], in assay [15] and in assay [20] was > 100 µM (inactive) in each case. The GI50 in assay [16] was > 100 µM (inactive).
Regarding `C/C(=N\O)c1ccc(Nc2nc3ccccc3c3occc23)cc1`, the GI50 in assay [1] was 6.68 µM (inactive); in assay [2], 4 µM (inactive); in assay [3] it was 3.87 µM (inactive); in assay [5], 8.41 µM (inactive); in assay [6], 2.19 µM (inactive); in assay [7], 3.42 µM (inactive). For the same molecule, the GI50 in [8] is 9.57 µM (inactive); in assay [9], 2.55 µM; in assay [10] it was 3 µM (inactive); in assay [17], 3.15 µM (inactive); in assay [11] it was 14.7 µM (inactive); in assay [12], 11.3 µM (inactive). Also, the GI50 in assay [18] is 12.6 µM (inactive); in [13], 2.76 µM (inactive); in [19], 15.6 µM (inactive); in [14], 3.77 µM (inactive); in assay [15], 7.01 µM (inactive); in assay [20] it was 2.58 µM (inactive). For the same molecule, in assay [16], the GI50 is 1.15 µM (inactive).
With `Cc1ccc(/C=C/C(=O)c2c([O-])on[n+]2-c2ccccc2)cc1`, the GI50 is 3.28 µM (inactive) in assay [1]; 1.36 µM (inactive) in [2]; 3.67 µM (inactive) in [3]; 5.86 µM (inactive) in assay [5]; 3.68 µM (inactive) in assay [6]; 3.53 µM (inactive) in [7]. The GI50 in assay [8] is 2.74 µM (inactive); in assay [9] it was 1.98 µM; in assay [10] it was 2.34 µM (inactive); in [17] it was 1.98 µM (inactive); in [11], 1.72 µM (inactive); in [12] it was 5.28 µM (inactive). For the same molecule, the GI50 in assay [18] was 2.79 µM (inactive); in [13] it was 4.98 µM (inactive); in assay [19] it was 4.61 µM (inactive); in [14], 2.39 µM (inactive); in [15] it was 2.73 µM (inactive); in assay [20], 2.57 µM (inactive). Moreover, the GI50 in [16] is 1.9 µM (inactive).
Consider `COc1ccc(-c2cc(-c3ccccc3)n(C3OC(COC(C)=O)C(OC(C)=O)C(OC(C)=O)C3OC(C)=O)c(=S)c2C#N)cc1` (stereo not given), for which the GI50 was 3.88 µM (inactive) in [1]; 10.6 µM (inactive) in assay [3]; 6.38 µM (inactive) in assay [4]; 3.61 µM (inactive) in [6]; 25.4 µM (inactive) in assay [7]; 11.7 µM (inactive) in assay [8]. Also, the GI50 was 26.1 µM in assay [9]; 17.9 µM (inactive) in assay [10]; 6.52 µM (inactive) in [17]; 4.79 µM (inactive) in assay [11]; 3.81 µM (inactive) in assay [12]; 6.79 µM (inactive) in assay [18]. The GI50 in assay [13] was 4.79 µM (inactive); in assay [19] it was 19.3 µM (inactive); in assay [14], 16.9 µM (inactive); in assay [15], 14.8 µM (inactive); in [20], 3.28 µM (inactive); in assay [16], 6.28 µM (inactive).
Take `O=C1C=CC2(O[C@H](C3CCCCC3)[C@@H](C3CCCCC3)O2)C(SC(=O)c2ccccc2)C1` (stereo not given in full): the GI50 is 2.88 µM (inactive) in [1]; 1.26 µM (inactive) in assay [2]; 6.07 µM (inactive) in [3]; 7.24 µM (inactive) in [4]; 8.41 µM (inactive) in [5]; 1.4 µM (inactive) in assay [6]. Moreover, the GI50 in assay [7] was 1.48 µM (inactive); in assay [8], 2.44 µM (inactive); in assay [9] it was 3.21 µM; in [10] it was 1.09 µM (active); in assay [11], 2.48 µM (inactive); in [12], 3.23 µM (inactive). The GI50 is 1.91 µM (inactive) in assay [18]; 1.39 µM (inactive) in assay [13]; 2.47 µM (inactive) in [19]; 6.98 µM (inactive) in assay [14]; 1.75 µM (inactive) in assay [15]; 0.968 µM (active) in assay [20]. Also, the GI50 in assay [16] was 1.36 µM (inactive).
With `Cc1ccc(N2C(=O)C(O)=C(C(=O)C(C)(C)C)C2c2ccc([N+](=O)[O-])cc2)cc1` (stereo not given), the GI50 was 24.9 µM (inactive) in [1]; 26.3 µM (inactive) in assay [2]; 23.6 µM (inactive) in [3]; 29.3 µM (inactive) in assay [5]; 23.9 µM (inactive) in [6]; 17.7 µM (inactive) in assay [7]. Also, the GI50 in assay [8] was 28.4 µM (inactive); in assay [9] it was 16.2 µM; in [10], 7.26 µM (inactive); in [17] it was 3.94 µM (inactive); in assay [11], 14.9 µM (inactive); in assay [12], 17.3 µM (inactive). In addition, the GI50 is 26.6 µM (inactive) in [18]; 18.9 µM (inactive) in assay [13]; 15.4 µM (inactive) in [19]; 16.7 µM (inactive) in assay [14]; 11.5 µM (inactive) in assay [15]; 10.9 µM (inactive) in [20]. Further, the GI50 in assay [16] is 17.6 µM (inactive).
As to `CC/C=C/C(=O)CC(O)(C(F)(F)F)C(F)(F)F`, the GI50 was > 100 µM (inactive) in [1]; 73.5 µM (inactive) in assay [2]; > 100 µM (inactive) in [3]; > 100 µM (inactive) in assay [4]; 22.5 µM (inactive) in assay [5]; > 100 µM (inactive) in assay [7]. The GI50 in assay [8] is > 100 µM (inactive); in assay [9] it was above 100 µM; in assay [10], > 100 µM (inactive); in assay [11], > 100 µM (inactive); in assay [12], > 100 µM (inactive); in assay [18] it was > 100 µM (inactive). Moreover, the GI50 in assay [13] is > 100 µM (inactive); in [19], > 100 µM (inactive); in assay [14], > 100 µM (inactive); in assay [15], > 100 µM (inactive); in [20], 54.8 µM (inactive); in assay [16], > 100 µM (inactive).
On to `c1ccc(C(=NNc2nc3ccccc3o2)c2ccccn2)nc1`, for which the GI50 in assay [1] was 0.0931 µM (active); in assay [2] it was < 0.01 µM (active); in [3] it was 0.151 µM (active); in [5], 0.182 µM (active); in [6] it was 0.0327 µM (active); in assay [7], < 0.0161 µM (active). In addition, the GI50 is 0.188 µM (active) in assay [8]; 0.0299 µM in assay [9]; < 0.0105 µM (active) in [10]; 0.0723 µM (active) in [17]; 0.0993 µM (active) in assay [11]; 0.0408 µM (active) in [12]. For the same molecule, the GI50 is 0.0998 µM (active) in assay [18]; 0.055 µM (active) in [13]; 0.0489 µM (active) in assay [19]; 0.148 µM (active) in assay [14]; 0.0327 µM (active) in assay [20]; < 0.0164 µM (active) in assay [16].
